Here are results for ten compounds from ChEMBL document CHEMBL2434945, “Anti-inflammatory constituents from the fruits of Vitex rotundifolia” (Bioorg Med Chem Lett, 2013).

Series [1] concerns RAW264.7. Briefly: Antiinflammatory activity against mouse RAW264.7 cells assessed as inhibition of LPS-induced NO production after 24 hrs by Griess method. It counts as functional, cell-based. The settings on record: RAW264.7, 24 h. (The Griess reaction detects nitrite, a stable product of nitric oxide.)
Series [2] in a line: Cytotoxicity against mouse RAW264.7 cells assessed as cell viability by colorimetric method relative to control. It counts as cell-based. Set-up: concentration or dose not given beside the values. The settings on record: read-out: Activity.

As a reminder, the IC50 is the concentration needed to halve the response being measured. On to `C[C@@H]1CC[C@H]2C(C)(C)CCC[C@]2(C)[C@@]12CC/C(=C\C=O)O2`, for which, in series [1], the IC50 was found to be 41.8 µM. Moreover, the viability in series [2] was greater than 90%.

As for `CC(C)(O)c1ccc2c(c1)CC[C@H]1C(C)(C)[C@@H](O)CC[C@]21C`, the concentration for half-maximal inhibition (IC50) in series [1] was greater than 50 µM. Further, the viability in series [2] was greater than 90%.

On to `COc1ccc(-c2oc3cc(OC)c(OC)c(O)c3c(=O)c2OC)cc1O` [CASTICIN], for which, in series [1], the concentration for half-maximal inhibition (IC50) was found to be 21.4 µM. The viability in series [2] is greater than 90%.

As for `COc1cc([C@H]2Oc3c(OC)cc(CCCO)cc3[C@@H]2CO)ccc1O` [DIHYDRODEHYDRODICONIFERY ALCOHOL], in series [1], the IC50 worked out at 38.7 µM. The viability in series [2] is greater than 90%.

Regarding `COc1cc(C[C@H]2CO[C@H](c3ccc(O)c(OC)c3)[C@H]2CO)ccc1O` [LARICIRESINOL], in series [1], the IC50 was greater than 50 µM. In series [2], the viability is greater than 90%.

`N=C(N)NN` [PIMAGEDINE]: in series [2], the viability was greater than 90%.

Regarding `CC(=O)O[C@@H]1C[C@@H](C)[C@](O)(CCC2=CC(=O)OC2O)[C@@]2(C)CCCC(C)(C)[C@H]12` (some centres undefined) [VITEAGNUSIN I], the IC50 in series [1] worked out at 11.3 µM. The viability in series [2] is greater than 90%.

As for `CC(=O)O[C@H]1CC[C@@]2(C)[C@@H](CC[C@@H](C)[C@]23CCC(=O)O3)C1(C)C` [VITEDOIN B], the IC50 in series [1] was greater than 50 µM. Moreover, the viability in series [2] was greater than 90%.

As for `C=CC(C)(O)CC[C@@]1(C)C2=C([C@H](OC(C)=O)[C@H](OC(C)=O)[C@H]1C)C(C)(C)CCC2` (some centres undefined) [VITETRIFOLIN D], the IC50 in series [1] was 24.5 µM. The viability in series [2] is greater than 90%.

For `CC(=O)O[C@@H]1C[C@@H](C)[C@](O)(CCC2=CC(=O)OC2)[C@@]2(C)CCCC(C)(C)[C@H]12` [VITEXILACTONE], in series [1], the IC50 is 42.5 µM. Besides, in series [2], the viability was greater than 90%.
